Measurements from patent US20240067662A1, “KRAS INHIBITORS” (Bristol-Myers Squibb Company, priority 2022, published 2024).

target: GMPPNP-loaded KRAS G12C (Homo sapiens, UniProt P01116, G12C); test: KRAS G12C RAF Disruption Assay (HTRF); format: biochemical; details: recombinant GMPPNP-loaded KRAS G12C (5 nM), 20 min with compound; GST-RAF1 RBD (9 nM); HTRF signal; read-out: KRASG12C RAF Disruption Assay (IC50)
Procedure, shortened: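 GMPPNP-loaded KRAS G12C (5 nM) was preincubated with compound for 20 min at room temperature in Tris pH 7.5 buffer with NaCl, MgCl2, DTT and BSA. GST-RAF1 RBD (9 nM) was added for 20 min, then SA-Tb (0.25 nM) for 3 h. IC50 was fitted from the HTRF 520/495 ratio.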

Sequence of GMPPNP-loaded KRAS G12C (P01116 1-188 isoform P01116-2 G12C): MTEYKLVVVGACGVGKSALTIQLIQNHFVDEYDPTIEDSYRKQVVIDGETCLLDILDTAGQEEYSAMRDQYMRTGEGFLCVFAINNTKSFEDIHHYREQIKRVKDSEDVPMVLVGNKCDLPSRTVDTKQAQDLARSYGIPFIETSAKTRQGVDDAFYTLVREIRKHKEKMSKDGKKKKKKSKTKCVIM

Compared with C#Cc1cccc2cccc(-c3ncc4c(N5CCN(C(=O)/C(F)=C/c6nccs6)C[C@@H]5C)nc(OC[C@@]56CCCN5C[C@H](F)C6)nc4c3F)c12 [Example 62, (Z)-1-((S)-4-(7-(8-ethynylnaphthalen-1-yl)-8-fluoro-2-(((2R, 7aS)-2-fluorotetrahydro-1H-pyrrolizin-7a(5H)-yl)methoxy)pyrido[4,3-d]pyrimidin-4-yl)-3-methylpiperazin-1-yl)-2-fluoro-3-(thiazol-2-yl)prop-2-en-1-one], C#Cc1cccc2cccc(-c3ncc4c(N5CCN(C(=O)/C(F)=C/c6nccs6)CC5)nc(OC[C@@]56CCCN5C[C@H](F)C6)nc4c3F)c12 [Example 47, (Z)-1-(4-(7-(8-ethynylnaphthalen-1-yl)-8-fluoro-2-(((2R, 7aS)-2-fluorotetrahydro-1H-pyrrolizin-7a(5H)-yl)methoxy)pyrido[4,3-d]pyrimidin-4-yl)piperazin-1-yl)-2-fluoro-3-(thiazol-2-yl)prop-2-en-1-one] is 3-fold lower in IC50: 300 nM for the first, 100 nM for the second. The second is the more potent here.

Compared with C#Cc1c(F)ccc2cccc(-c3ncc4c(N5CCN(C(=O)/C(F)=C/c6nccs6)CC5)nc(OC[C@@]56CCCN5C[C@H](F)C6)nc4c3F)c12 [Example 53, (Z)-1-(4-(7-(8-ethynyl-7-fluoronaphthalen-1-yl)-8-fluoro-2-(((2R, 7aS)-2-fluorotetrahydro-1H-pyrrolizin-7a(5H)-yl)methoxy)pyrido[4,3-d]pyrimidin-4-yl)piperazin-1-yl)-2-fluoro-3-(thiazol-2-yl)prop-2-en-1-one], Cn1ncc2cccc(-c3ncc4c(N5CCN(C(=O)/C(F)=C/c6nccs6)CC5)nc(OC[C@@]56CCCN5C[C@H](F)C6)nc4c3F)c21 [Example 39, (Z)-2-fluoro-1-(4-(8-fluoro-2-(((2R, 7aS)-2-fluorotetrahydro-1H-pyrrolizin-7a(5H)-yl)methoxy)-7-(I-methyl-1H-indazol-7-yl)pyrido[4,3-d]pyrimidin-4-yl)piperazin-1-yl)-3-(thiazol-2-yl)prop-2-en-1-one] is 120-fold higher in IC50: 44 nM for the first, 5100 nM for the second.

Compared with N#CC[C@H]1CN(c2nc(OC[C@@]34CCCN3C[C@H](F)C4)nc3c(F)c(-c4cc(F)ccc4F)ncc23)CCN1C(=O)/C(F)=C/c1ccccn1 [Example 40, 2-((S)-4-(7-(2,5-difluorophenyl)-8-fluoro-2-(((2R, 7aS)-2-fluorotetrahydro-1H-pyrrolizin-7a(5H)-yl)methoxy)pyrido[4,3-d]pyrimidin-4-yl)-1-((Z)-2-fluoro-3-(pyridin-2-yl)acryloyl)piperazin-2-yl)acetonitrile], Cn1ncc2cccc(-c3ncc4c(N5CCN(C(=O)/C(F)=C/c6ccccn6)[C@@H](CC#N)C5)nc(OC[C@@]56CCCN5C[C@H](F)C6)nc4c3F)c21 [Example 51, 2-((S)-4-(8-fluoro-2-(((2R, 7aS)-2-fluorotetrahydro-1H-pyrrolizin-7a(5H)-yl)methoxy)-7-(1-methyl-1H-indazol-7-yl)pyrido[4,3-d]pyrimidin-4-yl)-1-((Z)-2-fluoro-3-(pyridin-2-yl)acryloyl)piperazin-2-yl)acetonitrile] is 2.4-fold lower in IC50: 880 nM for the first, 360 nM for the second.

First: CN(c1nc(OC[C@@]23CCCN2C[C@H](F)C3)nc2c(F)c(-c3c(F)cc(F)c4sc(N)nc34)ncc12)[C@@H]1CCN(C(=O)/C(F)=C/c2ccccn2)C1 [Compound 119, (Z)-1-((3R)-3-((7-(2-amino-5,7-difluorobenzo[d]thiazol-4-yl)-8-fluoro-2-(((7aS)-2-fluorotetrahydro-1H-pyrrolizin-7a(5H)-yl)methoxy)pyrido[4,3-d]pyrimidin-4-yl)(methyl)amino)pyrrolidin-1-yl)-2-fluoro-3-(pyridin-2-yl)prop-2-en-1-one]
Second: C#Cc1cccc2cccc(-c3ncc4c(N(C)C5CCN(C(=O)/C(F)=C/c6ccccn6)CC5)nc(OC[C@@]56CCCN5C[C@H](F)C6)nc4c3F)c12 [Compound 131, (Z)-1-(4-((7-(8-ethynylnaphthalen-1-yl)-8-fluoro-2-(((2R, 7aS)-2-fluorotetrahydro-1H-pyrrolizin-7a(5H)-yl)methoxy)pyrido[4,3-d]pyrimidin-4-yl)(methyl)amino)piperidin-1-yl)-2-fluoro-3-(pyridin-2-yl)prop-2-en-1-one]
The IC50 of the first is 840-fold lower: 5 nM for the first, 4200 nM for the second. The first is the more potent here.

Compared with C#Cc1c(F)ccc2cc(O)cc(-c3ncc4c(N5CCN(C(=O)/C(F)=C/c6ncccn6)CC5)nc(OC[C@@]56CCCN5C[C@H](F)C6)nc4c3F)c12 [Example 57, (Z)-1-(4-(7-(8-ethynyl-7-fluoro-3-hydroxynaphthalen-1-yl)-8-fluoro-2-(((2R, 7aS)-2-fluorotetrahydro-1H-pyrrolizin-7a(5H)-yl)methoxy)pyrido[4,3-d]pyrimidin-4-yl)piperazin-1-yl)-2-fluoro-3-(pyrimidin-2-yl)prop-2-en-1-one], C#Cc1c(F)ccc2cc(O)cc(-c3ncc4c(N5C[C@H]6CC[C@@H](C5)N6C(=O)/C(F)=C/c5cccnn5)nc(OC[C@@]56CCCN5C[C@H](F)C6)nc4c3F)c12 [Compound 12, (Z)-1-((1R, 5S)-3-(7-(8-ethynyl-7-fluoro-3-hydroxynaphthalen-1-yl)-8-fluoro-2-(((2R, 7aS)-2-fluorotetrahydro-1H-pyrrolizin-7a(5H)-yl)methoxy)pyrido[4,3-d]pyrimidin-4-yl)-3,8-diazabicyclo[3.2.1]octan-8-yl)-2-fluoro-3-(pyridazin-3-yl)prop-2-en-1-one] is 2.8-fold higher in IC50: 4 nM for the first, 11 nM for the second.

Compared with N#Cc1cccc2[nH]cc(-c3ncc4c(N5CCN(C(=O)/C(F)=C/c6ccccn6)CC5)nc(OC[C@@]56CCCN5C[C@H](F)C6)nc4c3F)c12 [Compound 133, 3-(8-fluoro-4-(4-((Z)-2-fluoro-3-(pyridin-2-yl)acryloyl)piperazin-1-yl)-2-(((2R, 7aS)-2-fluorotetrahydro-1H-pyrrolizin-7a(5H)-yl)methoxy)pyrido[4,3-d]pyrimidin-7-yl)-1H-indole-4-carbonitrile], C#Cc1cccc2cccc(-c3ncc4c(N5CCN(C(=O)/C(F)=C/c6cncc(C)n6)CC5)nc(OC[C@@]56CCCN5C[C@H](F)C6)nc4c3F)c12 [Compound 125, (Z)-1-(4-(7-(8-ethynylnaphthalen-1-yl)-8-fluoro-2-(((2R, 7aS)-2-fluorotetrahydro-1H-pyrrolizin-7a(5H)-yl)methoxy)pyrido[4,3-d]pyrimidin-4-yl)piperazin-1-yl)-2-fluoro-3-(6-methylpyrazin-2-yl)prop-2-en-1-one] is 1.9-fold lower in IC50: 890 nM for the first, 480 nM for the second.

C#Cc1cccc2cccc(-c3ncc4c(N5CCN(C(=O)/C(F)=C/c6ccccn6)CC5)nc(OC[C@@H]5CCCN5C)nc4c3F)c12 [Example 25, (S,Z)-1-(4-(7-(8-ethynylnaphthalen-1-yl)-8-fluoro-2-((1-methylpyrrolidin-2-yl)methoxy)pyrido[4,3-d]pyrimidin-4-yl)piperazin-1-yl)-2-fluoro-3-(pyridin-2-yl)prop-2-en-1-one] and Cn1ncc2cccc(-c3ncc4c(N5CCN(C(=O)/C(F)=C/c6nccs6)[C@@H](CC#N)C5)nc(OC[C@@]56CCCN5C[C@H](F)C6)nc4c3F)c21 [Example 52, 2-((S)-4-(8-fluoro-2-(((2R, 7aS)-2-fluorotetrahydro-1H-pyrrolizin-7a(5H)-yl)methoxy)-7-(1-methyl-1H-indazol-7-yl)pyrido[4,3-d]pyrimidin-4-yl)-1-((Z)-2-fluoro-3-(thiazol-2-yl)acryloyl)piperazin-2-yl)acetonitrile] are within 1.5-fold of each other in IC50: 290 nM for the first, 430 nM for the second.

Going from N#CC[C@H]1CN(c2nc(OC[C@@]34CCCN3C[C@H](F)C4)nc3c(F)c(-c4csc5ccccc45)ncc23)CCN1C(=O)/C(F)=C/c1nccs1 [Example 34, 2-((S)-4-(7-(benzo[b]thiophen-3-yl)-8-fluoro-2-(((2R, 7aS)-2-fluorotetrahydro-1H-pyrrolizin-7a(5H)-yl)methoxy)pyrido[4,3-d]pyrimidin-4-yl)-1-((Z)-2-fluoro-3-(thiazol-2-yl)acryloyl)piperazin-2-yl)acetonitrile] to N#CC[C@H]1CN(c2nc(OC[C@@]34CCCN3C[C@H](F)C4)nc3c(F)c(-c4ccccc4C(F)(F)F)ncc23)CCN1C(=O)/C(F)=C/c1nccs1 [Example 32, 2-((S)-4-(8-fluoro-2-(((2R, 7aS)-2-fluorotetrahydro-1H-pyrrolizin-7a(5H)-yl)methoxy)-7-(2-(trifluoromethyl)phenyl)pyrido[4,3-d]pyrimidin-4-yl)-1-((Z)-2-fluoro-3-(thiazol-2-yl)acryloyl)piperazin-2-yl)acetonitrile], the IC50 falls from 400 nM to 76 nM (5.3-fold). The second is the more potent here.

Compared with C#Cc1c(F)ccc2cc(O)cc(-c3ncc4c(N5C[C@H]6CC[C@@H](C5)N6C(=O)/C(F)=C/c5nccn5C)nc(OC[C@@]56CCCN5C[C@H](F)C6)nc4c3F)c12 [Compound 5, (Z)-1-((1R, 5S)-3-(7-(8-ethynyl-7-fluoro-3-hydroxynaphthalen-1-yl)-8-fluoro-2-(((2R, 7aS)-2-fluorotetrahydro-1H-pyrrolizin-7a(5H)-yl)methoxy)pyrido[4,3-d]pyrimidin-4-yl)-3,8-diazabicyclo[3.2.1]octan-8-yl)-2-fluoro-3-(1-methyl-1H-imidazol-2-yl)prop-2-en-1-one], C#Cc1c(F)ccc2cc(O)cc(-c3ncc4c(N5C[C@H]6CC[C@@H](C5)N6C(=O)/C(F)=C/c5ncco5)nc(OC[C@@]56CCCN5C[C@H](F)C6)nc4c3F)c12 [Compound 4, (Z)-1-((1R, 5S)-3-(7-(8-ethynyl-7-fluoro-3-hydroxynaphthalen-1-yl)-8-fluoro-2-(((2R, 7aS)-2-fluorotetrahydro-1H-pyrrolizin-7a(5H)-yl)methoxy)pyrido[4,3-d]pyrimidin-4-yl)-3,8-diazabicyclo[3.2.1]octan-8-yl)-2-fluoro-3-(oxazol-2-yl)prop-2-en-1-one] is 3.3-fold higher in IC50: 79 nM for the first, 260 nM for the second.
